Test results from publication PMC12476087, “Loading of Dicarboxylatoplatinum(II)‐NHC Complexes in Bacterial Ghosts as an Advanced Development in Cancer Therapy” (Archiv Der Pharmazie, 2025).

Legend:
Water solubility = type: physicochemical
A2780wt cells [1] = test: Comet assay (intracellular DNA damage); type: cell-based; conditions: 50 µM, 48 h incubation
Experimental: Given that platinum‐based drugs are known to commonly induce DNA damage, a comet assay was conducted using A2780wt cells. This assay detects DNA damage such as DNA single/double strand breaks and DNA fragmentation, a common feature of apoptosis. […] DMF (0.1%)‐treated cells were used as a negative control to establish baseline DNA integrity.
Cellular DNA damage can be visualized by employing a comet assay, which is a single cell gel electrophoresis assay. Hereby, A2780wt cells were seeded at a density of 2 × 10^6 into 25 cm^2 flasks. After letting the cells adhere for 24 h in a humidified atmosphere, the cell culture medium was exchanged for medium containing the respective compound. The cells were then incubated for 48 h with the platinum complexes or 4 h with etoposide, respectively. After incubation, the cell growth was stopped by removing the compound‐containing medium, washing the cells with phosphate‐buffered saline (PBS) and detaching them with a rubber policeman. The detached cells were then centrifuged at 700g for 2 min and the resulting pellet was then washed with 5 mL of PBS. After that, the cells were adjusted to a concentration of 1 × 10^6 cells/mL and were resuspended in ice cold PBS. A total of 75 µL of liquified agarose per condition was transferred onto the slide to create a base layer. This base layer was solidified by transferring the slide to 4°C for 15 min. Afterwards, 10 µL of the above‐mentioned cell suspension in PBS were mixed with 90 µL of agarose. A total of 75 µL of this was added to each base layer, respectively. This layer was also allowed to solidify at 4°C for 15 min. The slide was then transferred to a small basin which contained pre‐chilled lysis buffer (14.6 g NaCl, 20 mL EDTA solution, 10 mL lysis solution, 10 mL DMSO, 60 mL deionized H2O), where it remained for 45 min in the dark at 4°C. The lysis buffer was then aspirated and exchanged with a pre‐chilled alkaline solution (1.2 g NaOH, 0.2 mL EDTA solution, 100 mL deionized H2O), where it remained for further 30 min in the dark at 4°C. The slide was then transferred to a horizontal electrophoresis chamber which was filled with cold alkaline solution. The electrophoresis conditions were set to 1.5 V/cm and 300 mA for 20 min. After the electrophoresis, the slide was transferred into a small basin containing pre‐chilled, deionized H2O. After 2 min, the water was aspirated and this washing step was repeated twice more. After the final rinse, the slide was submerged in 70% ethanol for 5 min. Once the slide has dried, 100 µL of diluted Vista Green DNA Dye was added to each well. After 15 min of incubation, the slides were analyzed on an IX‐70 epifluorescence microscope (Olympus, Shinjuku, Japan) using a FITC filter.

A2780wt cells [2] = test: Annexin V/PI staining and FACS analysis, A2780wt; type: cell-based; conditions: w/o BGs, 25 µM, 24 h; for late apoptosis/ necrosis: Annexin V positive/PI positive; for early apoptosis: percentage of cells (Annexin V positive/PI negative)
Experimental: Therefore, we aimed to evaluate the apoptosis and necrosis inducing potential of complexes 1–4 via a fluorescent‐activated cell sorting (FACS) analysis with Annexin V/propidium iodide (PI) staining in A2780wt and A2780cis cells. Cells were treated for 24 h with both the free and BG‐loaded forms of each compound at 25 µM. Carboplatin (50 µM) served as a reference.
To evaluate the mode of cell death, a FACS measurement after staining with Annexin V and PI was conducted. First, 0.3 × 10^6 A2780wt or A2780cis cells were seeded into 12‐well plates and were allowed to adhere for 24 h. The compounds were added at 25 µM, either diluted from a freshly prepared DMF stock solution (0.1% DMF) or freshly thawed when loaded in BGs. After 24 h of incubation, the cells were harvested with accutase and washed with PBS. The cells were then resuspended in 200 µL of PBS each and 1 µL of PI solution (Sigma‐Aldrich, Taufkirchen, Germany) and 1 µL of Annexin V‐FITC (MabTag GmbH, Friesoythe, Germany) were added to each sample. These were then incubated for 20 min at rt under light‐protected conditions and afterward transferred onto ice. The percentage of apoptotic cells was determined by analyzing Annexin V positive /PI negative cells using a BD LSRFortessa flow cytometer and BD FACSDiva software (both BD Biosciences, San Jose, CA, USA). The apoptosis analysis included the evaluation of early apoptosis (Annexin V positive/PI negative) and late apoptosis/necrosis (Annexin V positive /PI positive).

A2780wt cells [3] = test: ATP luminescence assay, A2780wt; type: cell-based; conditions: w/o BGs, 25 µM, 24 h
Source text: (§1) As a second potential mode of cell death, ICD has been investigated. Thus, two hallmarks of ICD, namely release of adenosine triphosphate (ATP) and calreticulin translocation to the plasma membrane have been analyzed in detail. Given that some platinum complexes, including the clinically used drug oxaliplatin [27], as well as BGs, are known inducers of ICD, we investigated the potential of BGs loaded with platinum(II)‐NHC complexes to trigger this process. […] Untreated cells (without compound and without BGs) were tested as negative controls.
(§2) The ATP assay was performed by employing the commercially available ATPlite Luminescence Assay System 96‐well (revvity, Massachusetts, USA). In brief, A2780wt and A2780cis cells, respectively, were seeded at a density of 8 × 10^3 cells per well into an opaque‐walled 96‐well plate with solid bottoms. […] After incubation, 50 µL of the provided mammalian cell lysis solution was added and incubated for further 5 min on an orbital shaker at 700 rpm. Then, 50 µL of a provided substrate solution was added and again incubated for 5 min on an orbital shaker at 700 rpm. The plate was allowed to dark adapt for 10 min and then the luminescence was measured. Analysis was performed on the BioTek Synergy H1.

A2780cis cells = test: ATP luminescence assay, A2780cis; type: cell-based; conditions: w/o BGs, 25 µM, 24 h
Source text: as §1, §2

Row | Molecule | water solubility (Water solubility) | intracellular DNA damage (comet formation) (A2780wt cells [1]) | late apoptosis/ necrosis (A2780wt cells [2]) | early apoptosis (A2780wt cells [2]) | ATP concentration (A2780wt cells [3]) [µM] | ATP concentration (A2780cis cells) [µM]
1 | CCN1[C]([Pt]([O]C(=O)C(Cl)Cl)([O]C(=O)C(Cl)Cl)[SH](C)(C)=O)N(CC)c2ccccc21 [Compound 3, (SP‐4‐2)‐Bis(dichloroacetato)(1,3‐diethylbenzimidazol‐2‐ylidene)(dimethylsulfoxide)platinum(II)] | < 0.5 mg/mL | induced intracellular DNA damage | 28.8 ± 2.50 | 15.3 ± 1.17 | 0.15 ± 0.08 | 0.28 ± 0.04
2 | (SP‐4‐2)‐Diacetatobis(1,3‐diethylbenzimidazol‐2‐ylidene)platinum(II) [Compound 2] | around 3 mg/mL | did not show any evidence of comet formation | 25.9 ± 5.70 | 9.37 ± 0.31 | 0.32 ± 0.03 | 0.31 ± 0.04
3 | CCN1[C]([Pt]([O]C(C)=O)([O]C(C)=O)[SH](C)(C)=O)N(CC)c2ccccc21 [Compound 1, (SP‐4‐2)‐Diacetato(1,3‐diethylbenzimidazol‐2‐ylidene)(dimethylsulfoxide)platinum(II)] | approximately 10 mg/mL | induced intracellular DNA damage | 29.1 ± 2.56 | 15.9 ± 1.55 | 0.20 ± 0.04 | 0.23 ± 0.05
4 | (SP‐4‐2)‐Bis(dichloroacetato)bis(1,3‐diethylbenzimidazol‐2‐ylidene)platinum(II) [Compound 4] | < 0.5 mg/mL | induced intracellular DNA damage | 46.9 ± 3.01 | 13.2 ± 0.22 | 0.32 ± 0.13 | 0.10 ± 0.03
